This experiment concerns the target T1, FAAH (Rattus norvegicus, UniProt P97612).
T1 construct: Preparation of Rat Brain Membranes Preparations (FAAH Enzyme Solution); from tissue; host or cells: rat cerebrum (brain membrane preparation)
T1 sequence (P97612 1-579): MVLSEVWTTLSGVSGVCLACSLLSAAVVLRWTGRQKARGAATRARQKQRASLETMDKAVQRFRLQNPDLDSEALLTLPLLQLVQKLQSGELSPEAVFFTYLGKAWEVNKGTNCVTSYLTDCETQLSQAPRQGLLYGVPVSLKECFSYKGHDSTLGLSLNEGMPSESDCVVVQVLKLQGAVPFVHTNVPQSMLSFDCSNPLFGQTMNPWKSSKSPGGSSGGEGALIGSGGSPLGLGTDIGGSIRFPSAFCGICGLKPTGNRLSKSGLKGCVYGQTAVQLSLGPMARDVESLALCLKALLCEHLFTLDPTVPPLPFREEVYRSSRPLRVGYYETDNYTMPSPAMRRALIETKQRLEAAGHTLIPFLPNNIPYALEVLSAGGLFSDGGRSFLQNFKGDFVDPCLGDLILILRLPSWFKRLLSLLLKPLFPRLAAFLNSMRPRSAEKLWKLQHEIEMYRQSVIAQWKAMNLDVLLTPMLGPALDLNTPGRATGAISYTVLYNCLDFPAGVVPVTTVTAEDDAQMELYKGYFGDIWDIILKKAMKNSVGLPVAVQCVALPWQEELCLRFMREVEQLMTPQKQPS
Kind of experiment: Determination of FAAH inhibitory activity in rat (rat brain membrane preparations, [3H]-anandamide hydrolysis). It is filed as biochemical. The note with it: rat brain membrane preparations; for inhibition at 0.1 µM: read-out: FAAH Inhibition, Inhibition Rate at 100 nM; for IC50: test substance 0.1 nM to 1 μM, read-out: FAAH Inhibition IC50. The essentials: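 Rat cerebrum membranes (100 μg/mL protein) preincubated 10 min at 37 °C with compound (1% DMSO) in pH 7.6 Tris buffer with 1.5% BSA. Substrate 2 nM [3H]-anandamide plus 2 μM anandamide added for 10 min at 37 °C. [3H]-ethanolamine in the aqueous phase after chloroform/methanol extraction was scintillation counted; IC50 over 0.1 nM–1 μM.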

In the case of `CN(C)C(=O)n1c(=O)n(C)c2cnc(CCc3ccc(F)c(F)c3)nc21` [compound 496], the IC50 (as a rule, the concentration at which inhibition is half-maximal) was 15 nM. Further, the inhibition (as a rule, the drop in the measured response relative to a control, in per cent) at 0.1 µM (100 nM test substance) is 86%.
On the same counts, the results for `Cc1cccc(CCc2ncc3c(n2)n(C(=O)N(C)C)c(=O)n3C)c1` [compound 498] are 24 nM and 93%.
On the same counts, the results for `CN(C)C(=O)n1c(=O)n(C)c2cnc(CCc3ccccc3F)nc21` [compound 499] are 28 nM and 91%.
`CCCc1ccc(CCc2ncc3c(n2)n(C(=O)N(C)C)c(=O)n3C)cc1` [compound 500]: the IC50 stood at 10 nM. Moreover, the inhibition at 0.1 µM (100 nM test substance) came out at 104%.
Regarding `CCCOc1ccc(CCc2ncc3c(n2)n(C(=O)N(C)C)c(=O)n3C)cc1` [compound 501], the IC50 is 10 nM. Besides, the inhibition at 0.1 µM (100 nM test substance) came out at 103%.
On the same counts, the results for `CC(C)c1ccc(CCc2ncc3c(n2)n(C(=O)N(C)C)c(=O)n3C)cc1` [compound 502] are 10 nM and 104%.
On the same counts, the results for `CCc1ccc(CCc2ncc3c(n2)n(C(=O)N(C)C)c(=O)n3C)cc1` [compound 503] are 10 nM and 101%.
For the molecule `CN(C)C(=O)n1c(=O)n(C)c2cnc(CCc3cc(F)c(F)c(F)c3)nc21` [compound 504], the half-maximal inhibitory concentration (IC50) is 6 nM. Moreover, where the note is “100 nM test substance”, the inhibition at 0.1 µM was found to be 100%.
As to `Cc1ccc(C)c(CCc2ncc3c(n2)n(C(=O)N(C)C)c(=O)n3C)c1` [compound 507], the half-inhibitory concentration (IC50) is 24 nM. In addition, for the setting “100 nM test substance”, the inhibition at 0.1 µM was 95%.
Take `CCCCc1ccc(CCc2ncc3c(n2)n(C(=O)N(C)C)c(=O)n3C)cc1` [compound 508]: the 50% inhibitory concentration (IC50) came out at 5 nM. Besides, the inhibition at 0.1 µM (100 nM test substance) was 100%.
Turning to `Cc1cc(CCc2ncc3c(n2)n(C(=O)N(C)C)c(=O)n3C)ccc1F` [compound 509], the IC50 was 10 nM. In addition, the inhibition at 0.1 µM (100 nM test substance) turned out to be 99%.
On to `Cc1ccc(CCc2ncc3c(n2)n(C(=O)N(C)C)c(=O)n3C)cc1C` [compound 510], for which the 50% inhibitory concentration (IC50) came to 11 nM. The inhibition at 0.1 µM (100 nM test substance) stood at 102%.
For `Cc1cc(C)c(CCc2ncc3c(n2)n(C(=O)N(C)C)c(=O)n3C)c(C)c1` [compound 511] the same measures were 13 nM and 95%.
On the same counts, the results for `Cc1cc(C)cc(CCc2ncc3c(n2)n(C(=O)N(C)C)c(=O)n3C)c1` [compound 514] are 10 nM and 102%.
Turning to `CCc1ccccc1CCc1ncc2c(n1)n(C(=O)N(C)C)c(=O)n2C` [compound 515], the IC50 is 10 nM. Further, the inhibition at 0.1 µM (100 nM test substance) was found to be 100%.
For the molecule `CCc1cccc(CCc2ncc3c(n2)n(C(=O)N(C)C)c(=O)n3C)c1` [compound 516], the IC50 came out at 10 nM. In addition, the inhibition at 0.1 µM (100 nM test substance) came to 100%.
For `CN(C)C(=O)n1c(=O)n(C)c2cnc(CCc3cccc(C4CC4)c3)nc21` [compound 517] the same measures were 10 nM and 98%.
On to `CCCc1cccc(CCc2ncc3c(n2)n(C(=O)N(C)C)c(=O)n3C)c1` [compound 518], for which the IC50 amounted to 9 nM. For the same molecule, the inhibition at 0.1 µM (100 nM test substance) amounted to 107%.
For the molecule `CN(C)C(=O)n1c(=O)n(C)c2cnc(CCc3cccc(OCC4CC4)c3)nc21` [compound 519], the IC50 is 6 nM. For the setting “100 nM test substance”, the inhibition at 0.1 µM worked out at 84%.
On to `CN(C)C(=O)n1c(=O)n(C)c2cnc(CCc3cccc(Cl)c3)nc21` [compound 520], for which the IC50 amounted to 4 nM. Also, the inhibition at 0.1 µM (100 nM test substance) is 96%.
As for `CN(C)C(=O)n1c(=O)n(C)c2cnc(CCc3ccc(C4CC4)cc3)nc21` [compound 521], the IC50 stood at 13 nM. The inhibition at 0.1 µM (100 nM test substance) worked out at 85%.
For `CN(C)C(=O)n1c(=O)n(C)c2cnc(CCc3ccc(C4CC4)c(F)c3)nc21` [compound 524] the same measures were 94 nM and 80%.
For `CN(C)C(=O)n1c(=O)n(C)c2cnc(CCc3ccc(F)c(C4CC4)c3)nc21` [compound 527] the same measures were 28 nM and 95%.
For the molecule `CN(C)C(=O)n1c(=O)n(C)c2cnc(CCc3cc(F)cc(F)c3)nc21` [compound 528], the IC50 came to 55 nM. In addition, for the setting “100 nM test substance, 0.1 µM”, the “FAAH Inhibition, Inhibition Rate at 100 nM” value amounted to 72%.
Regarding `CN(C)C(=O)n1c(=O)n(C)c2cnc(CCc3ccc(OC4CCC4)cc3)nc21` [compound 531], the IC50 was determined as 30 nM. The inhibition at 0.1 µM (100 nM test substance) amounted to 80%.
For `CN(C)C(=O)n1c(=O)n(C)c2cnc(CCc3ccc(OC4CCCC4)cc3)nc21` [compound 532] the same measures were 13 nM and 96%.
On to `CCOc1cccc(CCc2ncc3c(n2)n(C(=O)N(C)C)c(=O)n3C)c1` [compound 534], for which the IC50 came to 131 nM. Further, under “100 nM test substance”, the inhibition at 0.1 µM was 47%.
As for `CCCOc1cccc(CCc2ncc3c(n2)n(C(=O)N(C)C)c(=O)n3C)c1` [compound 535], the IC50 was determined as 75 nM. Further, the inhibition at 0.1 µM (100 nM test substance) was found to be 61%.
For `CC(C)Oc1cccc(CCc2ncc3c(n2)n(C(=O)N(C)C)c(=O)n3C)c1` [compound 536] the same measures were 131 nM and 41%.
On the same counts, the results for `CN(C)C(=O)n1c(=O)n(C)c2cnc(CCc3cccc(C(F)F)c3)nc21` [compound 537] are 153 nM and 41%.
On the same counts, the results for `CN(C)C(=O)n1c(=O)n(C)c2cnc(CCc3cccc(C(F)(F)F)c3)nc21` [compound 539] are 17 nM and 92%.
Consider `CN(C)C(=O)n1c(=O)n(C)c2cnc(CCc3ccccc3C(F)(F)F)nc21` [compound 542], for which the half-inhibitory concentration (IC50) came to 10 nM. The inhibition at 0.1 µM (100 nM test substance) turned out to be 100%.
On the same counts, the results for `COc1cccc(CCc2ncc3c(n2)n(C(=O)N(C)C)c(=O)n3C)c1` [compound 543] are 67 nM and 70%.
For `COc1ccc(CCc2ncc3c(n2)n(C(=O)N(C)C)c(=O)n3C)cc1` [compound 544] the same measures were 11 nM and 122%.
On the same counts, the results for `CN(C)C(=O)n1c(=O)n(C)c2cnc(CCc3ccccc3C(F)F)nc21` [compound 546] are 28 nM and 86%.
On to `CN(C)C(=O)n1c(=O)n(C)c2cnc(CCc3cccc(OC(F)F)c3)nc21` [compound 548], for which the half-maximal inhibitory concentration (IC50) stood at 27 nM. In addition, the inhibition at 0.1 µM (100 nM test substance) was found to be 79%.
Regarding `CN(C)C(=O)n1c(=O)n(C)c2cnc(CCc3ccccc3OC(F)(F)F)nc21` [compound 549], the concentration for half-maximal inhibition (IC50) is 22 nM. In addition, for the setting “100 nM test substance”, the inhibition at 0.1 µM was found to be 77%.
For `CN(C)C(=O)n1c(=O)n(C)c2cnc(CCc3cccc(F)c3F)nc21` [compound 550] the same measures were 20 nM and 87%.
For `CN(C)C(=O)n1c(=O)n(C)c2cnc(CCc3c(F)cccc3F)nc21` [compound 551] the same measures were 104 nM and 40%.
For `CCN(C)C(=O)n1c(=O)n(C)c2cnc(CCc3ccccc3F)nc21` [compound 554], the inhibition at 0.1 µM (100 nM test substance) amounted to 43%.
As to `CCN(C)C(=O)n1c(=O)n(C)c2cnc(CCc3ccc(F)cc3)nc21` [compound 555], the concentration for half-maximal inhibition (IC50) was 106 nM. The inhibition at 0.1 µM (100 nM test substance) was found to be 48%.
On the same counts, the results for `CCN(C)C(=O)n1c(=O)n(C)c2cnc(CCc3cccc(C)c3)nc21` [compound 556] are 44 nM and 78%.
For `CCN(C)C(=O)n1c(=O)n(C)c2cnc(CCc3cccc(OC)c3)nc21` [compound 557] the same measures were 67 nM and 66%.
On the same counts, the results for `CCN(C)C(=O)n1c(=O)n(C)c2cnc(CCc3cccc(OC(F)(F)F)c3)nc21` [compound 558] are 23 nM and 83%.
As to `Cc1ccc(CCc2ncc3c(n2)n(C(=O)N2CCC2)c(=O)n3C)cc1` [compound 559], the IC50 was found to be 10 nM. Besides, the inhibition at 0.1 µM (100 nM test substance) turned out to be 97%.
For `Cc1cccc(CCc2ncc3c(n2)n(C(=O)N2CCC2)c(=O)n3C)c1` [compound 560] the same measures were 14 nM and 91%.
On the same counts, the results for `CCc1ccc(CCc2ncc3c(n2)n(C(=O)N2CCC2)c(=O)n3C)cc1` [compound 561] are 10 nM and 99%.
As for `CCCc1ccc(CCc2ncc3c(n2)n(C(=O)N2CCC2)c(=O)n3C)cc1` [compound 562], the 50% inhibitory concentration (IC50) stood at 10 nM. In addition, the inhibition at 0.1 µM (100 nM test substance) was found to be 101%.
On the same counts, the results for `CC(C)c1ccc(CCc2ncc3c(n2)n(C(=O)N2CCC2)c(=O)n3C)cc1` [compound 563] are 7 nM and 100%.
As for `CCCOc1ccc(CCc2ncc3c(n2)n(C(=O)N2CCC2)c(=O)n3C)cc1` [compound 564], the IC50 was found to be 9 nM. Moreover, for the setting “100 nM test substance”, the inhibition at 0.1 µM came out at 98%.
